Source: patent US9655884B2, “Antiparasitic use of isoxazoline compounds” (Intervet Inc., priority 2013, dated 2017)

Test system: adult fleas (C. felis)
Assay: In vitro membrane feeding exposure to assess flea reproduction
Set-up: species or system Ctenocephalides felis
Details: for Pupal Development Control / Larval Emergence: eggs of parent fleas fed 0.09 ng/mL in blood
Description: A membrane feeding method [Wade S E, Georgi J R. Survival and reproduction of artificially fed cat fleas, Ctenocephalides felis Bouché (Siphonaptera: Pulicidae). J Med Entomol 1988, 25: 186-190.] was modified to assess the impact of fluralaner exposure on flea reproduction. Defibrinated sheep blood was prepared in a series of dilutions with fluralaner to obtain concentrations between 50.0 and 0.09 ng/mL. These test solutions were prepared twice and each preparation was tested in duplicate resulting in a total of 4 replicates per concentration, along with a fluralaner negative solvent control (a solvent concentration equivalent to that of the highest concentrated fluralaner test solution) and an untreated control.
Unfed adult fleas (C. felis; 20 males and 20 females) were placed into a plastic unit that was then closed with a gauze lid. A grid inside the plastic unit divided the unit into 2 chambers, an upper chamber for flea feeding and a lower chamber for egg collection. Test or control blood preparations (2 ml) were placed in an artificial membrane closed glass tube that was then placed on the plastic unit as the food source. Feeding units were incubated (38° C. and 60% RH) for 10 days. Test and negative control blood preparations were freshly prepared and exchanged (on days 1, 3, 5, and 8) to permit continuous flea feeding. Fleas were transferred into fresh plastic units on Days 5 and 8 to facilitate egg collection. Collected eggs were mixed with flea nourishment medium and incubated (28° C. and 80% RH) in darkness for 22 (±3) days to enable flea development. Parameters recorded were flea survival, oviposition control, egg hatchability, pupa control, flea-emergence control and reproduction inhibition.

[1] = 0.09 ng/mL in blood, exposure day 3
[2] = 0.09 ng/mL in blood, exposure day 4
[3] = 0.09 ng/mL in blood, exposure day 5
[4] = 0.09 ng/mL in blood, exposure day 8
[5] = 0.09 ng/mL in blood, exposure day 9
[6] = 0.09 ng/mL in blood, exposure day 10
[7] = 0.19 ng/mL in blood, exposure day 3
[8] = 0.19 ng/mL in blood, exposure day 4
[9] = 0.19 ng/mL in blood, exposure day 5
[10] = 0.19 ng/mL in blood, exposure day 8
[11] = 0.19 ng/mL in blood, exposure day 9
[12] = 0.19 ng/mL in blood, exposure day 10
[13] = 0.39 ng/mL in blood, exposure day 3
[14] = 0.39 ng/mL in blood, exposure day 4
[15] = 0.39 ng/mL in blood, exposure day 5
[16] = 0.39 ng/mL in blood, exposure day 8
[17] = 0.39 ng/mL in blood, exposure day 9
[18] = 0.39 ng/mL in blood, exposure day 10
[19] = 0.78 ng/mL in blood, exposure day 3
[20] = 0.78 ng/mL in blood, exposure day 4
[21] = 0.78 ng/mL in blood, exposure day 5
[22] = 0.78 ng/mL in blood, exposure day 8
[23] = 0.78 ng/mL in blood, exposure day 9
[24] = 0.78 ng/mL in blood, exposure day 10
[25] = 1.56 ng/mL in blood, exposure day 3
[26] = 1.56 ng/mL in blood, exposure day 4
[27] = 1.56 ng/mL in blood, exposure day 5
[28] = 1.56 ng/mL in blood, exposure day 8
[29] = 1.56 ng/mL in blood, exposure day 9
[30] = 1.56 ng/mL in blood, exposure day 10
[31] = 3.13 ng/mL in blood, exposure day 3
[32] = 3.13 ng/mL in blood, exposure day 4
[33] = 3.13 ng/mL in blood, exposure day 5
[34] = 3.13 ng/mL in blood, exposure day 8
[35] = 3.13 ng/mL in blood, exposure day 9
[36] = 3.13 ng/mL in blood, exposure day 10
[37] = 6.25 ng/mL in blood, exposure day 3
[38] = 6.25 ng/mL in blood, exposure day 4
[39] = 6.25 ng/mL in blood, exposure day 5
[40] = 6.25 ng/mL in blood, exposure day 8
[41] = 6.25 ng/mL in blood, exposure day 9
[42] = 6.25 ng/mL in blood, exposure day 10
[43] = 12.5 ng/mL in blood, exposure day 3
[44] = 12.5 ng/mL in blood, exposure day 4
[45] = 12.5 ng/mL in blood, exposure day 5
[46] = 12.5 ng/mL in blood, exposure day 8
[47] = 12.5 ng/mL in blood, exposure day 9
[48] = 12.5 ng/mL in blood, exposure day 10
[49] = 25.0 ng/mL in blood, exposure day 3
[50] = 25.0 ng/mL in blood, exposure day 4
[51] = 25.0 ng/mL in blood, exposure day 5
[52] = 50.0 ng/mL in blood, exposure day 3
[53] = 50.0 ng/mL in blood, exposure day 4
[54] = 50.0 ng/mL in blood, exposure day 5

## Cc1cc(C2=NOC(c3cc(Cl)cc(Cl)c3)(C(F)(F)F)C2)ccc1C(=O)NCC(=O)NCC(F)(F)F (stereo not shown) [fluralaner, 4-[5-(3,5-Dichlorophenyl)-5-trifluoromethyl-4,5-dihydroisoxazol-3-yl]-2-methyl-N-[(2,2,2-trifluoro-ethylcarbamoyl)-methyl]-benzamide]
0.09 ng/mL in blood, arithmetic mean of exposure days
  Oviposition Control: 7.9%
0.09 ng/mL in blood, exposure day 2
  Flea Survival: 100%
[1]
  Flea Survival: 100%
  Oviposition Control: 0%
[2]
  Flea Survival: 100%
  Oviposition Control: 11.3%
[3]
  Flea Survival: 100%
  Oviposition Control: 10.9%
[4]
  Flea Survival: 100%
  Oviposition Control: 16.7%
[5]
  Flea Survival: 100%
  Oviposition Control: 0.3%
[6]
  Flea Survival: 100%
  Oviposition Control: 8.1%
0.19 ng/mL in blood, arithmetic mean of exposure days
  Oviposition Control: 9.2%
0.19 ng/mL in blood, exposure day 2
  Flea Survival: 100%
[7]
  Flea Survival: 100%
  Oviposition Control: 0%
[8]
  Flea Survival: 100%
  Oviposition Control: 5.1%
[9]
  Flea Survival: 100%
  Oviposition Control: 21.0%
[10]
  Flea Survival: 100%
  Oviposition Control: 15.1%
[11]
  Flea Survival: 100%
  Oviposition Control: 0%
[12]
  Flea Survival: 100%
  Oviposition Control: 13.9%
0.39 ng/mL in blood, arithmetic mean of exposure days
  Oviposition Control: 16.1%
0.39 ng/mL in blood, exposure day 2
  Flea Survival: 100%
[13]
  Flea Survival: 100%
  Oviposition Control: 6.72%
[14]
  Flea Survival: 100%
  Oviposition Control: 22.8%
[15]
  Flea Survival: 100%
  Oviposition Control: 23.2%
[16]
  Flea Survival: 100%
  Oviposition Control: 23.8%
[17]
  Flea Survival: 100%
  Oviposition Control: 0%
[18]
  Flea Survival: 98.7%
  Oviposition Control: 20.3%
0.78 ng/mL in blood, arithmetic mean of exposure days
  Oviposition Control: 9.4%
0.78 ng/mL in blood, exposure day 2
  Flea Survival: 100%
[19]
  Flea Survival: 100%
  Oviposition Control: 8.7%
[20]
  Flea Survival: 100%
  Oviposition Control: 3.0%
[21]
  Flea Survival: 100%
  Oviposition Control: 13.8%
[22]
  Flea Survival: 100%
  Oviposition Control: 12.5%
[23]
  Flea Survival: 100%
  Oviposition Control: 0%
[24]
  Flea Survival: 100%
  Oviposition Control: 18.5%
1.56 ng/mL in blood, arithmetic mean of exposure days
  Oviposition Control: 21.1%
1.56 ng/mL in blood, exposure day 2
  Flea Survival: 100%
[25]
  Flea Survival: 100%
  Oviposition Control: 0%
[26]
  Flea Survival: 99.4%
  Oviposition Control: 0%
[27]
  Flea Survival: 99.1%
  Oviposition Control: 17.3%
[28]
  Flea Survival: 93.9%
  Oviposition Control: 49.8%
[29]
  Flea Survival: 92.9%
  Oviposition Control: 30.1%
[30]
  Flea Survival: 90.3%
  Oviposition Control: 29.2%
3.13 ng/mL in blood, arithmetic mean of exposure days
  Oviposition Control: 50.5%
3.13 ng/mL in blood, exposure day 2
  Flea Survival: 100%
[31]
  Flea Survival: 100%
  Oviposition Control: 32.0%
[32]
  Flea Survival: 98.7%
  Oviposition Control: 35.7%
[33]
  Flea Survival: 97.8%
  Oviposition Control: 43.1%
[34]
  Flea Survival: 83.1%
  Oviposition Control: 70.5%
[35]
  Flea Survival: 79.5%
  Oviposition Control: 59.9%
[36]
  Flea Survival: 78.8%
  Oviposition Control: 62.0%
6.25 ng/mL in blood, arithmetic mean of exposure days
  Oviposition Control: 80.6%
6.25 ng/mL in blood, exposure day 2
  Flea Survival: 100%
[37]
  Flea Survival: 100%
  Oviposition Control: 82.6%
[38]
  Flea Survival: 97.5%
  Oviposition Control: 85.9%
[39]
  Flea Survival: 92.8%
  Oviposition Control: 81.3%
[40]
  Flea Survival: 85.0%
  Oviposition Control: 79.9%
[41]
  Flea Survival: 73.1%
  Oviposition Control: 67.5%
[42]
  Flea Survival: 69.7%
  Oviposition Control: 86.4%
12.5 ng/mL in blood, arithmetic mean of exposure days
  Oviposition Control: 99.6%
12.5 ng/mL in blood, exposure day 2
  Flea Survival: 100%
[43]
  Flea Survival: 100%
  Oviposition Control: 99.6%
[44]
  Flea Survival: 67.5%
  Oviposition Control: 100%
[45]
  Flea Survival: 38.9%
  Oviposition Control: 100%
[46]
  Flea Survival: 21.7%
  Oviposition Control: 98.9%
[47]
  Flea Survival: 17.9%
  Oviposition Control: 99.1%
[48]
  Flea Survival: 12.3%
  Oviposition Control: 100%
25.0 ng/mL in blood, arithmetic mean of exposure days
  Oviposition Control: 100%
25.0 ng/mL in blood, exposure day 2
  Flea Survival: 90.6%
[49]
  Flea Survival: 67.5%
  Oviposition Control: 100%
[50]
  Flea Survival: 31.9%
  Oviposition Control: 100%
[51]
  Flea Survival: 11.3%
  Oviposition Control: 100%
25.0 ng/mL in blood, exposure day 8
  Flea Survival: 0%
25.0 ng/mL in blood, exposure day 9
  Flea Survival: 0%
25.0 ng/mL in blood, exposure day 10
  Flea Survival: 0%
50.0 ng/mL in blood, arithmetic mean of exposure days
  Oviposition Control: 100%
50.0 ng/mL in blood, exposure day 2
  Flea Survival: 78.1%
[52]
  Flea Survival: 20.0%
  Oviposition Control: 100%
[53]
  Flea Survival: 8.7%
  Oviposition Control: 100%
[54]
  Flea Survival: 1.2%
  Oviposition Control: 100%
50.0 ng/mL in blood, exposure day 8
  Flea Survival: 0%
50.0 ng/mL in blood, exposure day 9
  Flea Survival: 0%
50.0 ng/mL in blood, exposure day 10
  Flea Survival: 0%
Arithmetic mean of exposure days
  Pupal Development Control: 4.0%
Exposure day 3
  Larval Emergence: yes
  Pupal Development Control: 9.1%
Exposure day 4
  Larval Emergence: yes
  Pupal Development Control: 4.5%
Exposure day 5
  Larval Emergence: yes
  Pupal Development Control: 1.4%
Exposure day 8
  Larval Emergence: yes
